According to patent US20260355184A1, “SMALL MOLECULE DEGRADERS OF HIV-1 TAT PROTEIN” (priority 2022, published 2026):
Like-named read-outs stand apart in the source and are kept apart here.

How the values were obtained:
HIV NL4.3 strain = test: HIV infectivity assay, reporter cell line HeLa-CD4-LTR-LacZ, β-Gal activity (Tat protein inhibition); type: cell-based, HIV-1 (NL4.3)
In short: (§1)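 HeLa-CD4-LTR-LacZ reporter cells (β-Gal under HIV 5′ LTR) infected with HIV NL4.3; β-Gal activity read 72 h post infection, with parallel Cell-Titer-Glo viability. OM10.1 carry a single wild-type provirus; ACH-2 a single provirus with TAR C37T mutation, defective Tat-TAR feedback.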

HeLa-CD4-LTR-LacZ cells = test: Cytotoxicity assay, Cell-Titer-Glo, HeLa-CD4-LTR-LacZ; conditions: read-out: Infectivity CC50, HeLa-CD4-LTR-LacZ
In short: as §1

Flag-Tat = target: T1, Flag-Tat (Human immunodeficiency virus type 1 (HXB3 ISOLATE), UniProt P69698); test: Degradation assay: Flag-Tat in HEK293T cells, western blot; type: cell-based, HIV; conditions: HEK293T; western blot
T1 construct: Tat 86 aa likely (9 lysines)
Method: Next, the effect of the three leads on the alteration of Tat steady state levels was assessed. Tat expression from an integrated provirus, or from HIV acute infection is generally too low to be detected by western blot. Furthermore, antibodies against Tat are known for their lack of avidity. Tat degradation was thus assessed upon transfection. Flag-Tat or Flag-GFP were individually transfected into HEK293T and 24 hrs later, TT-44856, TT-44863 or TT-44881 were added to the culture, followed by Western blot 24 hrs later (dubbed “degradation assay”) (FIG. 5A). […] These cells were treated with TNFα (previously determined not be degraded by the three leads in FIG. 2D) in the presence of TT-44856, TT-44863 or TT-44881, followed by western blot with an anti-Flag antibody 17 hrs later. […] Finally, the leads' impact on recombinant Tat protein in HEK293T cells was assessed (FIG. 5D). HEK293T cells were incubated with recombinant Tat for 4 hrs to allow Tat internalization, followed by several thorough washes to remove unincorporated Tat. Cells were then incubated with all three leads (or Triptolide) for an additional 2 hrs. Cells were lysed and analyzed by western blot with an anti-Tat serum.
Degradation of Tat has been reported in the literature in multiple ways, including the lysosomal pathway^23, the ubiquitin-independent 20S proteasomal pathway (due to its unfolded structure)^24,25, and the ubiquitin-dependent 26S proteasomal pathway^26. It was first assessed whether Tat was targeted to the lysosomal pathway by the lead compounds. HEK293T cells were transfected with Flag-Tat for 24 hrs, incubated with the compounds for an additional 24 hrs, then treated for 8 hrs with either 100 μM chloroquine or 50 mM NH4Cl, both known to inhibit lysosomal hydrolases by reducing acidification. […] Both the 20S and the 26S proteasomal pathways were next investigated using MG132, an inhibitor of the catalytic […] of 20S present in both pathways^27. The degradation assay was carried out as above, but compounds were simultaneously incubated with MG132 20 μM or DMSO for 17 hrs followed by western blot. In the presence of MG132, Tat degradation was rescued, but the rescue was higher in the presence of the lead compounds (FIG. 6B).
Protein ubiquitination occurs by sequential recruitment of ubiquitin-activating enzyme E1, ubiquitin-conjugating enzyme E2, and ubiquitin ligase E3 (using ubiquitin, substrate protein, and ATP). The selectivity in protein ubiquitination is conferred by E3 ubiquitin ligases that recognize the substrate proteins^29 and the human genome contains more than 600 E3 ubiquitin ligases^29. To determine whether the small molecule leads trigger the 20S or the 26S proteasomal pathways, the Tat degradation assay was performed in the presence of commercially available E3 ligase inhibitors, including Lenalidomide a E3 ubiquitin ligase Cereblon inhibitor. Cereblon has not been previously reported to ubiquitinate Tat. The degradation assays were performed as above with Lenalidomide (40 μM) or DMSO incubation for 4 hrs in the presence of the lead molecules (FIG. 7A). […] To confirm the engagement of Cereblon in the mechanism of action of the lead compounds, shRNAs were used to stably knock down Cerebelon, or CD8 control, in HEK293T cells, and the degradation assay for TT-44856 was performed.
The involvement of the ubiquitous VHL E3 ligase in the activity of TT-44881 inducing Tat degradation was also investigated. HEK293T cells overexpressing Tat protein and VHL siRNAs (or si control) were treated with either TT-44881 (60 μM) and DMSO or TT-44881 with a VHL PROTAC (CM11, 500 nM) for 24 hours. siRNAs and PROTACs were used together to maximize the depletion of both VHL isoforms (30 and 19 kDa).

[1] = Cytotoxicity assay, Cell-Titer-Glo, HeLa-CD4-LTR-LacZ; conditions: human, hela-cd4-ltr-lacz cells, Infectivity CC50, HeLa-CD4-LTR-LacZ
In short: as §1

[2] = read-out: Infectivity IC50, HeLa-CD4-LTR-LacZ, analogs of TT-44856 (Table 3)
[3] = Human immunodeficiency virus 1, read-out: Infectivity IC50, HeLa-CD4-LTR-LacZ, analogs of TT-44881 (Table 1)
[4] = Human immunodeficiency virus 1, read-out: Infectivity IC50, HeLa-CD4-LTR-LacZ, analogs of TT-44863 (Table 2)

T1 sequence (P69698 whole entry): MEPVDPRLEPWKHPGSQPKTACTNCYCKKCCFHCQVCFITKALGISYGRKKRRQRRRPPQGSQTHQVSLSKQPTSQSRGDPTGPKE

| Compound | IC50 (HIV NL4.3 strain; [3]) [µM] | CC50 ([1]; analogs of TT-44881 (Table 1)) [µM] | IC50 (HIV NL4.3 strain; [4]) [µM] | CC50 ([1]; analogs of TT-44863 (Table 2)) [µM] | further results |
| --- | --- | --- | --- | --- | --- |
| Cc1nccn1CCCNC(=O)C(C)(c1ccccc1)c1ccccc1 [3-53] |  |  |  |  | IC50 (HIV NL4.3 strain; [2]): 1 to 10 µM; CC50 (HeLa-CD4-LTR-LacZ cells; analogs of TT-44856 (Table 3)): 50 to 100 µM |
| O=C(NCCCn1ccnc1)C(c1ccccc1)c1ccccc1 [3-71] |  |  |  |  | IC50 (HIV NL4.3 strain; [2]): 1 to 30 µM; CC50 (HeLa-CD4-LTR-LacZ cells; analogs of TT-44856 (Table 3)): > 100 µM |
| O=C(NCCCN1CCCC1=O)c1nn(-c2ccccc2)c2c1CCCC2 [GB-02] |  |  |  |  | IC50 (HIV NL4.3 strain; read-out: Infectivity IC50, HeLa-CD4-LTR-LacZ, analogs of TT-44881 (Table 1)): 50 to 100 µM; CC50 (HeLa-CD4-LTR-LacZ cells; analogs of TT-44881 (Table 1)): > 100 µM |
| CN(CCCN1CCCC1=O)C(=O)c1nn(-c2ccccc2)c2c1CCC2 [GB-04] | > 100 | > 100 |  |  | Flag-Tat degradation / steady state (Flag-Tat): did not affect Flag-Tat steady state |
| COc1ccc(C#N)cc1NC(=O)Cn1cccc(Cl)c1=O [TT-46766] |  |  | > 100 | > 100 | Flag-Tat degradation / steady state (Flag-Tat): did not affect Flag-Tat steady state |
| CC(C)(C)OC(=O)COCCOCCOc1ccc(C(F)(F)F)cc1NC(=O)Cn1cc(C(F)(F)F)cc(Cl)c1=O [compound 56] |  |  |  |  | IC50 (HIV NL4.3 strain; read-out: Infectivity IC50, HeLa-CD4-LTR-LacZ, analogs of TT-44863 (Table 2)): > 100 µM; CC50 (HeLa-CD4-LTR-LacZ cells; analogs of TT-44863 (Table 2)): > 100 µM |
| O=C(NCCCN1CCCC1=O)c1cn(-c2ccccc2)c2ccc(F)cc12 [compound 46880] | 50 to 100 | 50 to 100 |  |  |  |
| O=C(NCCCN1CCCC1=O)c1nn(Cc2ccccc2)c2c1CCC2 [compound 46885] | > 100 | > 100 |  |  |  |
| COc1ccc(C(F)(F)F)cc1NC(=O)Cn1cc(C(F)(F)F)ccc1=O [compound 46917] |  |  | 1 to 30 | > 100 |  |
| Cc1cc(NCCCN2CCCC2=O)n2nc(C)nc2n1 [compound 46930] | > 100 | > 100 |  |  |  |
| O=C(NCCCN1CCCC1=O)c1nc2ccccc2[nH]c1=O [compound 46931] | 10 to 30 | > 100 |  |  |  |
| CCn1nc(C(=O)NCCCN2CCCC2=O)c2c1CCC2 [compound 46932] | > 100 | > 100 |  |  |  |
| O=C(NCCCN1CCCC1=O)c1nn(CC2CCC2)c2c1CCC2 [compound 46933] | > 100 | > 100 |  |  |  |
| O=C(NCCCN1CCCC1=O)c1nnc(-c2ccccc2)c2ccccc12 [compound 46934] | > 100 | > 100 |  |  |  |
| O=C(NCCCN1CCCC1=O)c1cnn(-c2ccccc2)c1 [compound 46935] | > 100 | > 100 |  |  |  |
| COc1ccc(C#N)cc1NC(=O)Cn1cc(C)cc(Cl)c1=O [compound 46946] |  |  | > 50 | > 50 |  |
| COc1ccc(C(F)(F)F)cc1CNC(=O)Cn1cc(C)cc(Cl)c1=O [compound 46957] |  |  | > 50 | > 50 |  |
| COc1ccc(C(F)(F)F)cc1CNC(=O)Cn1cc(C(F)(F)F)ccc1=O [compound 46960] |  |  | > 100 | > 100 |  |
| O=C(NCCCN1CCCC1=O)c1nn(-c2ccccc2)cc1C(F)(F)F [compound 46979] | 50 to 100 | > 100 |  |  |  |

| Compound | IC50 (HIV NL4.3 strain; [3]) [µM] | CC50 ([1]; analogs of TT-44881 (Table 1)) [µM] | IC50 (HIV NL4.3 strain; [4]) [µM] | CC50 ([1]; analogs of TT-44863 (Table 2)) [µM] | further results |
| --- | --- | --- | --- | --- | --- |
| Cc1ccc(C(F)(F)F)cc1NC(=O)Cn1cc(C(F)(F)F)cc(Cl)c1=O [compound 47001] |  |  | 1 to 10 | > 100 |  |
| COc1ccc(C(F)(F)F)cc1NC(=O)Cn1cc(F)cc(Cl)c1=O [compound 47006] |  |  | > 50 | > 50 |  |
| O=C(NCCCN1CCCC1=O)c1nn(-c2ccccc2)cc1F [compound 47010] | > 100 | > 100 |  |  |  |
| O=C(NCCCN1CCCC1=O)c1nn(-c2ccccc2)cc1C1CC1 [compound 47011] | > 100 | > 100 |  |  |  |
| COc1ccc(C(F)(F)F)cc1NC(=O)Cn1cc(C#N)cc(Cl)c1=O [compound 47018] |  |  | > 50 | > 50 |  |
| COc1ccc(C(F)(F)F)cc1NC(=O)CCn1cc(C(F)(F)F)cc(Cl)c1=O [compound 47020] |  |  | > 25 | > 25 |  |
| COc1ccc(C(F)(F)F)cc1NC(=O)Cn1cc(C(F)(F)F)cc(F)c1=O [compound 47033] |  |  | 1 to 10 | 50 to 100 |  |
| O=C(NCCCN1CCCC1=O)c1nc2ccccc2n1-c1ccccc1 [compound 47051] | > 25 | > 25 |  |  |  |
| COc1ccc(C(F)(F)F)cc1NC(=O)Cn1cc(C(F)(F)F)cc(Br)c1=O [compound 47055] |  |  | 1 to 10 | 50 to 100 |  |
| N#Cc1ccc(C(F)(F)F)cc1NC(=O)Cn1cc(C(F)(F)F)cc(Cl)c1=O [compound 47061] |  |  | > 100 | > 100 |  |
| CCOC(=O)c1sc(NC(=O)Cn2cc(C(F)(F)F)cc(Cl)c2=O)nc1C(F)(F)F [compound 47063] |  |  | 23.7 | 25 to 50 |  |
| CC(C)(C)c1cn(-c2ccccc2)nc1C(=O)NCCCN1CCCC1=O [compound 47091] | > 100 | 50 to 100 |  |  |  |
| CC(C)c1nn(-c2ccccc2)cc1C(=O)NCCCN1CCCC1=O [compound 47092] | > 100 | > 100 |  |  |  |
| COc1ccc(C(F)(F)F)cc1-c1noc(Cn2cc(C(F)(F)F)cc(Cl)c2=O)n1 [compound 47111] |  |  | > 100 | > 100 |  |
| O=C(NCCCN1CCCC1=O)c1ccc(=O)n(-c2ccccc2)c1 [compound 47155] | > 100 | > 100 |  |  |  |
| COc1cc(C(F)(F)F)ccc1NC(=O)Cn1cccc(Cl)c1=O [compound 47171] |  |  | > 100 | > 100 |  |
| COc1ccc(C(F)(F)F)cc1-c1noc(Cn2cc(C)cc(Cl)c2=O)n1 [compound 47198] |  |  | > 50 | > 50 |  |
| COc1ccc(C(F)(F)F)cc1-c1noc(Cn2cc(C(F)(F)F)ccc2=O)n1 [compound 47199] |  |  | > 50 | > 50 |  |
